According to ChEMBL document CHEMBL1201862, “PubChem BioAssay data set” (2004):
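Method: 48-hour compound exposure of cells in 96-well plates, five concentrations, linear interpolation of endpoints. GI50 marks 50% less growth.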 Active and inactive are the calls of the source. No stated cut-off is given here; in the data, active = GI50 up to about 1.1 µM and inactive = higher.

What was measured:
Experiment in all cases: NCI-60 cell line screen, 48 h
M14 = system: M14
BT-549 = system: BT-549
786-0 = system: 786-0
SW-620 = system: SW-620
SK-MEL-2 = system: SK-MEL-2
MDA-N = system: MDA-N
OVCAR-8 = system: OVCAR-8
CCRF-CEM = system: CCRF-CEM
NCI-H23 = system: NCI-H23
SK-MEL-28 = system: SK-MEL-28
SN12C = system: SN12C
MDA-MB-231 = system: MDA-MB-231
UACC-257 = system: UACC-257
HOP-62 = system: HOP-62
SF-539 = system: SF-539
DU-145 = system: DU-145
IGROV-1 = system: IGROV-1
OVCAR-4 = system: OVCAR-4
RXF 393 = system: RXF 393
U-251 = system: U-251
SNB-75 = system: SNB-75
TK-10 = system: TK-10
SK-MEL-5 = system: SK-MEL-5
HCT-15 = system: HCT-15
Malme-3M = system: Malme-3M
MDA-MB-435 = system: MDA-MB-435
HOP-92 = system: HOP-92
HT-29 = system: HT-29
PC-3 = system: PC-3
HCT-116 = system: HCT-116
T47D = system: T47D
NCI-H522 = system: NCI-H522
Hs-578T = system: Hs-578T
A498 = system: A498
EKVX = system: EKVX
NCI-H460 = system: NCI-H460
KM12 = system: KM12
SF-268 = system: SF-268
HL-60 = system: HL-60
MCF7 = system: MCF7
SK-OV-3 = system: SK-OV-3
UO-31 = system: UO-31
SNB-19 = system: SNB-19
SF-295 = system: SF-295
ACHN = system: ACHN
K562 = system: K562
UACC-62 = system: UACC-62
OVCAR-3 = system: OVCAR-3
RPMI-8226 = system: RPMI-8226
LOX IMVI = system: LOX IMVI
CAKI-1 = system: CAKI-1
COLO 205 = system: COLO 205
SR = system: SR
MOLT-4 = system: MOLT-4
OVCAR-5 = system: OVCAR-5
NCI/ADR-RES = system: NCI/ADR-RES
NCI-H226 = system: NCI-H226
HCC 2998 = system: HCC 2998
A549 = system: A549

For `Oc1cc(-c2cccc(OCc3ccccc3)c2)nc2cc3c(cc12)OCO3`, the GI50 (M14) was 311 nM (active), the GI50 (BT-549) was 469 nM (active) and the GI50 (786-0) was 374 nM (active). The GI50 (SW-620) was 303 nM (active), the GI50 (SK-MEL-2) was 301 nM (active) and the GI50 (MDA-N) was 106 nM (active). The GI50 (OVCAR-8) was 339 nM (active), the GI50 (CCRF-CEM) was 274 nM (active) and the GI50 (NCI-H23) was 750 nM (active). For the same molecule, the GI50 (SK-MEL-28) was 632 nM (active), the GI50 (SN12C) was 378 nM (active) and the GI50 (MDA-MB-231) was 605 nM (active). The GI50 (UACC-257) was 14700 nM (inactive), the GI50 (HOP-62) was 440 nM (active) and the GI50 (SF-539) was 252 nM (active). For the same molecule, the GI50 (DU-145) was 644 nM (active), the GI50 (IGROV-1) was 1090 nM (active) and the GI50 (OVCAR-4) was 2810 nM (inactive). The GI50 (RXF 393) was 330 nM (active), the GI50 (U-251) was 245 nM (active) and the GI50 (SNB-75) was 1050 nM (active). For the same molecule, the GI50 (TK-10) was 2320 nM (inactive), the GI50 (SK-MEL-5) was 247 nM (active) and the GI50 (HCT-15) was 376 nM. For the same molecule, the GI50 (Malme-3M) was 621 nM (active), the GI50 (MDA-MB-435) was 90.2 nM (active) and the GI50 (HOP-92) was 578 nM (active). The GI50 (HT-29) was 2010 nM (inactive), the GI50 (PC-3) was 327 nM (active) and the GI50 (HCT-116) was 346 nM (active). The GI50 (T47D) was > 52000 nM (inactive), the GI50 (NCI-H522) was 268 nM (active) and the GI50 (Hs-578T) was 303 nM (active). For the same molecule, the GI50 (A498) was 256 nM (active), the GI50 (EKVX) was 378 nM (active) and the GI50 (NCI-H460) was 292 nM (active). For the same molecule, the GI50 (KM12) was 491 nM (active), the GI50 (SF-268) was 8340 nM (inactive) and the GI50 (HL-60) was 93.5 nM (active). The GI50 (MCF7) was 1910 nM (inactive), the GI50 (SK-OV-3) was 342 nM (active) and the GI50 (UO-31) was 502 nM (active). For the same molecule, the GI50 (SNB-19) was 423 nM (active), the GI50 (SF-295) was 630 nM (active) and the GI50 (ACHN) was 3710 nM (inactive). For the same molecule, the GI50 (K562) was 235 nM (active), the GI50 (UACC-62) was 370 nM (active) and the GI50 (OVCAR-3) was 304 nM (active). The GI50 (RPMI-8226) was 303 nM (active), the GI50 (LOX IMVI) was 269 nM (active) and the GI50 (CAKI-1) was 673 nM (active). The GI50 (COLO 205) was 1310 nM (inactive), the GI50 (SR) was 397 nM (active) and the GI50 (MOLT-4) was 334 nM (active). The GI50 (OVCAR-5) was 3400 nM (inactive), the GI50 (NCI/ADR-RES) was 226 nM (active) and the GI50 (NCI-H226) was 455 nM (active). For the same molecule, the GI50 (HCC 2998) was 298 nM (active) and the GI50 (A549) was 871 nM (active).
With `O=c1[nH]nc(-c2ccccc2)n1/N=C/c1ccc([N+](=O)[O-])o1` the GI50 (M14) was 4140 nM (inactive), the GI50 (BT-549) was 6000 nM (inactive) and the GI50 (786-0) was 4880 nM (inactive). The GI50 (SW-620) was 2490 nM (inactive), the GI50 (SK-MEL-2) was 5210 nM (inactive) and the GI50 (MDA-N) was 3250 nM (inactive). For the same molecule, the GI50 (OVCAR-8) was 3220 nM (inactive), the GI50 (CCRF-CEM) was 1090 nM (active) and the GI50 (NCI-H23) was 5900 nM (inactive). For the same molecule, the GI50 (SK-MEL-28) was 4920 nM (inactive), the GI50 (SN12C) was 4370 nM (inactive) and the GI50 (MDA-MB-231) was 6710 nM (inactive). The GI50 (UACC-257) was 4920 nM (inactive), the GI50 (HOP-62) was 6110 nM (inactive) and the GI50 (SF-539) was 4650 nM (inactive). For the same molecule, the GI50 (DU-145) was 3450 nM (inactive), the GI50 (IGROV-1) was 2570 nM (inactive) and the GI50 (OVCAR-4) was 6650 nM (inactive). The GI50 (RXF 393) was 897 nM (active), the GI50 (U-251) was 6500 nM (inactive) and the GI50 (SNB-75) was 16000 nM (inactive). The GI50 (TK-10) was 52800 nM (inactive), the GI50 (SK-MEL-5) was 14800 nM (inactive) and the GI50 (HCT-15) was 2210 nM. For the same molecule, the GI50 (Malme-3M) was 4260 nM (inactive), the GI50 (MDA-MB-435) was 5200 nM (inactive) and the GI50 (HOP-92) was 6710 nM (inactive). The GI50 (HT-29) was 2490 nM (inactive), the GI50 (PC-3) was 6350 nM (inactive) and the GI50 (HCT-116) was 1370 nM (inactive). The GI50 (T47D) was 13700 nM (inactive), the GI50 (NCI-H522) was 1320 nM (inactive) and the GI50 (Hs-578T) was 27200 nM (inactive). The GI50 (A498) was 9120 nM (inactive), the GI50 (EKVX) was 8630 nM (inactive) and the GI50 (NCI-H460) was 5120 nM (inactive). The GI50 (KM12) was 6650 nM (inactive), the GI50 (SF-268) was 5570 nM (inactive) and the GI50 (HL-60) was 8890 nM (inactive). For the same molecule, the GI50 (MCF7) was 2040 nM (inactive), the GI50 (SK-OV-3) was 9290 nM (inactive) and the GI50 (UO-31) was 4320 nM (inactive). The GI50 (SNB-19) was 12600 nM (inactive), the GI50 (SF-295) was 10400 nM (inactive) and the GI50 (ACHN) was 2420 nM (inactive). For the same molecule, the GI50 (K562) was 3640 nM (inactive), the GI50 (UACC-62) was 5210 nM (inactive) and the GI50 (OVCAR-3) was 993 nM (active). The GI50 (RPMI-8226) was 2040 nM (inactive), the GI50 (LOX IMVI) was 3340 nM (inactive) and the GI50 (CAKI-1) was 7130 nM (inactive). The GI50 (COLO 205) was 4150 nM (inactive), the GI50 (SR) was 1080 nM (active) and the GI50 (MOLT-4) was 962 nM (active). For the same molecule, the GI50 (OVCAR-5) was 10400 nM (inactive), the GI50 (NCI/ADR-RES) was 5850 nM (inactive) and the GI50 (NCI-H226) was 9440 nM (inactive). For the same molecule, the GI50 (HCC 2998) was 5260 nM (inactive) and the GI50 (A549) was 7660 nM (inactive).
